Results as given in patent US20250163043A1 (TRANSTHERA SCIENCES (NANJING), INC., priority 2021, published 2025).

Key:
Type in all cases: biochemical
CDK1/CycE1 = CDK1/CycE1 (Homo sapiens, UniProt P06493); assay: ADP-Glo kinase assay on CDK enzymatic activity, CDK1/CycE1; settings: ADP-Glo; 10 concentrations from 10 μM, 4-fold; 60 min room temperature; read-out: CDK1/CycE1/nM (IC50)
In short: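 Compounds in 10-point 4-fold dilutions from 10 μM final, preincubated 10 min with kinase, then substrate/ATP added; 60 min reaction at room temperature. ADP-Glo luminescence read.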

CDK5/p25NCK = CDK5/p25NCK (Homo sapiens, UniProt Q00535); assay: ADP-Glo kinase assay on CDK enzymatic activity, CDK5/p25NCK; settings: 10 concentrations from 10 μM, 4-fold, 60 min room temperature
CDK5/p25NCK, sequence (Q00535 whole entry, species assumed): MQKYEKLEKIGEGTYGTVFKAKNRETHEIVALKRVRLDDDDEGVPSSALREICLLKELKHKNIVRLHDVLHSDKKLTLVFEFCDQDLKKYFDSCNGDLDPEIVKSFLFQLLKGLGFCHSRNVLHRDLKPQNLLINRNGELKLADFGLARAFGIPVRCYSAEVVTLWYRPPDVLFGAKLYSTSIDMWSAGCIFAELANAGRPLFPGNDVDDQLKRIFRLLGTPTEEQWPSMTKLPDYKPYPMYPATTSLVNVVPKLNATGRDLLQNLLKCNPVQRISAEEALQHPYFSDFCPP
CDK5/p25NCK, sequence (Q15078 99-307 partner limits assumed, species assumed): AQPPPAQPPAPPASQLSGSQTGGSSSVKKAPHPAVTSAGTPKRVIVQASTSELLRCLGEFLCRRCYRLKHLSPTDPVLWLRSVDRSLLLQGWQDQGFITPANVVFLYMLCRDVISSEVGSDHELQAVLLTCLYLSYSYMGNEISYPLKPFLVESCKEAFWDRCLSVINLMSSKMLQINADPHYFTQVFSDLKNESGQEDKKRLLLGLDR
Excerpt: (§1) Test samples: the compounds of the present invention, having structures shown above.
(§2) ADP-Glo Kinase Assay (ADP-Glo kinase kit), DMSO (dimethyl sulfoxide), CDK9/CycT1 (cyclin-dependent kinase 9/cyclin T1), CDK tide (cyclin-dependent kinase substrate peptide fragments), CDK1/CycE1 (cyclin-dependent kinase 1/cyclin E1), CDK2/CycA2 (cyclin-dependent kinase 2/cyclin A2), CDK3/CycE1 (cyclin-dependent kinase 3/cyclin E1), CDK4/CycD3 (cyclin-dependent kinase 4/cyclin D3), CDK5/p25NCK (cyclin-dependent kinase 5/p25), and AZD 4573.
(§3) A 384-well white plate, a 96-well plate, a microplate oscillator, a centrifuge, and a microplate reader.
(§4) The compounds were dissolved in DMSO and diluted 4-fold in the 96-well plate to obtain stock solutions with 10 concentration gradients, and added into a 384-well plate system to obtain a series of 10 concentration gradients of compound solutions with final concentrations of 10 μM starting and 4-fold gradient decreasing. 1 μM AZD4573 was used as compound positive control (PC) and 0.5% DMSO as solvent vehicle control (VC), ten duplicated wells each for PC and VC.
(§5) 1 μL of compound solution and 2 μL of 2× kinase solution were transferred to each well, and the plate was centrifuged at 1000 g for 30 s and left at room temperature for 10 min. A mixture of 2× substrate and ATP was prepared in 1× kinase buffer. The reaction was started after adding 2 μL of substrate and ATP into the plate. The plate was centrifuged at 1000 g for 30 s. The assay plate was closed and left at room temperature for 60 min. The reaction system was added with 4 μL of ADP Glo reagent, centrifuged at 1000 rpm for 1 min, and incubated at room temperature for 40 min. The reaction system was added with 8 μL of kinase assay reagent, centrifuged at 1000 rpm for 1 min and incubated at room temperature for 40 min. The […] was read on Biotek.
(§6) The inhibition rate was calculated according to the following formula: […]
(§7) Lumcmpd: compound fluorescence reading; Lumpositive: average value of the fluorescence reading of positive compound control; Lumvehicle: average value of the fluorescence reading of solvent vehicle control.
(§8) IC50 values were fitted using GraphPad 7.0 based on inhibition rates of compounds at different concentrations.

CDK3/CycE1 = CDK3/CycE1 (Homo sapiens, UniProt Q00526); assay: ADP-Glo kinase assay on CDK enzymatic activity, CDK3/CycE1; settings: 10 concentrations from 10 μM, 4-fold, 60 min room temperature
CDK3/CycE1, sequence (Q00526 whole entry, species assumed): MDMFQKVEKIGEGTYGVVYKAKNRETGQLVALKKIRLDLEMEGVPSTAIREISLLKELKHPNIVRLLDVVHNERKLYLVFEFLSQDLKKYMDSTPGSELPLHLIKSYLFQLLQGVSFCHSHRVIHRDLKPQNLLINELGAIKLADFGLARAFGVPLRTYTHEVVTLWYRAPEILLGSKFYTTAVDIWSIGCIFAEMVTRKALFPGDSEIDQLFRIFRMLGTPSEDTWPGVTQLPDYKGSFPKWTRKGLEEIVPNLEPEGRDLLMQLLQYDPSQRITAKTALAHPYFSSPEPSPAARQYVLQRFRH
CDK3/CycE1, sequence (P24864 whole entry partner, species assumed): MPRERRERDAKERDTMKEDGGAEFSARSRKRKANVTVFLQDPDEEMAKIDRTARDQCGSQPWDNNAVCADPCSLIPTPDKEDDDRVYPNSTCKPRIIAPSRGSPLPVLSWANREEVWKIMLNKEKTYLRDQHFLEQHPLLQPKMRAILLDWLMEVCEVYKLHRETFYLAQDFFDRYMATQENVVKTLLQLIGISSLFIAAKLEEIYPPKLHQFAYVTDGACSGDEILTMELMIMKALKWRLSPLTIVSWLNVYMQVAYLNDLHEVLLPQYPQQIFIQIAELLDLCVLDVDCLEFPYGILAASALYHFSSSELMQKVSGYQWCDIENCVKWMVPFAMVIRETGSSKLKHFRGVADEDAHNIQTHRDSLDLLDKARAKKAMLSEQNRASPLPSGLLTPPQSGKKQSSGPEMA
Excerpt: as §1, §2, §3, §4, §5, §6, §7, §8

CDK9/CycT1 = CDK9/CycT1 (Homo sapiens, UniProt P50750); assay: ADP-Glo kinase assay on CDK enzymatic activity, CDK9/CycT1; settings: 10 concentrations from 10 μM, 4-fold, 60 min room temperature
CDK9/CycT1, sequence (P50750 whole entry): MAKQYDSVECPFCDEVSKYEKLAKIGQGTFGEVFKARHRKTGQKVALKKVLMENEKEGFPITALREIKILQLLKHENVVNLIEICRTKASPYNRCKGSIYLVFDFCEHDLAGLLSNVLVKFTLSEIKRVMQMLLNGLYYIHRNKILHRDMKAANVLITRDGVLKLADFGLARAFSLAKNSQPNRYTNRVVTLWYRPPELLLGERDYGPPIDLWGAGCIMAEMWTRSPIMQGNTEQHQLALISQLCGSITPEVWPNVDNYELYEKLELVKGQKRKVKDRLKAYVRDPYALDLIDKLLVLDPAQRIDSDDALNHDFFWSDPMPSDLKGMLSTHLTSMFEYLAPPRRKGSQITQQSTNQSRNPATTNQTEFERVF
CDK9/CycT1, sequence (O60563 whole entry partner): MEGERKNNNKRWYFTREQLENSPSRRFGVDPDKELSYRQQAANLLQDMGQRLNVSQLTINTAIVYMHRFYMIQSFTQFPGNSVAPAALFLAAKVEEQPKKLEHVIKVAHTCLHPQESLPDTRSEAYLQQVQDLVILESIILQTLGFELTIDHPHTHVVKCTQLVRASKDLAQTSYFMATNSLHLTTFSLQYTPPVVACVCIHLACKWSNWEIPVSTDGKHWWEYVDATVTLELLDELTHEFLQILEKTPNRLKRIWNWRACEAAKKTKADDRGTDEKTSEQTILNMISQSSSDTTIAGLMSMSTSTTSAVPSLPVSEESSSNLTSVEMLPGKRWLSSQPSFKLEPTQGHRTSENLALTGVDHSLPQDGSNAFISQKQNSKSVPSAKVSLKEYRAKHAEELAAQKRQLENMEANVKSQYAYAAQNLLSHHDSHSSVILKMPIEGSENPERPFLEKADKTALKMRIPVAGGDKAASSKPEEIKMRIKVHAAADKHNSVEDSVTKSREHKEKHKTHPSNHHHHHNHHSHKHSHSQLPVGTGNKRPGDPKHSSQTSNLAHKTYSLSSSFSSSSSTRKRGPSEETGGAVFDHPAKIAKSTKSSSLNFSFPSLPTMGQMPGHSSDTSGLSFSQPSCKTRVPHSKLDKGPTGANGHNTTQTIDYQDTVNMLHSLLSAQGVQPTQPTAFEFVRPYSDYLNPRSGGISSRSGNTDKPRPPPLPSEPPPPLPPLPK
In short: (§9)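 Steps: compound (10 μM top, 4-fold series) plus kinase, 10 min RT; add substrate/ATP mix, 60 min RT; ADP-Glo reagent 40 min; detection reagent 40 min; read luminescence. Inhibition referenced to AZD4573 (1 μM) and DMSO vehicle; IC50 by nonlinear fit.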

CDK2/CycA2 = CDK2/CycA2 (Homo sapiens, UniProt P24941); assay: ADP-Glo kinase assay on CDK enzymatic activity, CDK2/CycA2; settings: 10 concentrations from 10 μM, 4-fold, 60 min room temperature
In short: as §9

CDK1/CycE1, sequence (P06493 whole entry, species assumed): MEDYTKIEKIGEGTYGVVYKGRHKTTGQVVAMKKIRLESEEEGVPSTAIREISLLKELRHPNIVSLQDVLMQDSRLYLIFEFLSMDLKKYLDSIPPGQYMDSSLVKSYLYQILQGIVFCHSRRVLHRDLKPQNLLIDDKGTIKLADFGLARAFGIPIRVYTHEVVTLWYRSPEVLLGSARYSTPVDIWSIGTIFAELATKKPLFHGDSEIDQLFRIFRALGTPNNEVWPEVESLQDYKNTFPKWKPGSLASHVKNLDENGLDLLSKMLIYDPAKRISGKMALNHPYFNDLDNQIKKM
CDK1/CycE1, sequence (P24864 whole entry partner, species assumed): as the sequence (P24864 whole entry partner, species assumed) above

| SMILES | IC50 (CDK1/CycE1) [nM] | IC50 (CDK5/p25NCK) [nM] | IC50 (CDK3/CycE1) [nM] | IC50 (CDK9/CycT1) [nM] | IC50 (CDK2/CycA2) [nM] |
| --- | --- | --- | --- | --- | --- |
| CC(C)Nc1nc(C#N)cc2cnc(N[C@H]3C[C@@H](N)C3)nc12 [Compound 126, 2-(((1s,3s)-3-aminocyclobutyl)amino)-8-(isopropylamino)pyrido[3,4-d]pyrimidine-6-carbonitrile] | 95 | 238 | 287 | 2 | 181 |
| CC(C)(C)Oc1nc(C#N)cc2cnc(N[C@H]3CCCNC3)cc12 [Compound 152, (S)-1-(tert-butoxy)-7-(piperidin-3-ylamino)-2,6-naphthyridine-3-carbonitrile] | 110 | 1000 | 124 | 2 | 267 |
| CC(C)Nc1nc(C#N)cc2cnc(N[C@H]3CCCNCC3)nc12 [Compound 131, (S)-2-(azepan-4-ylamino)-8-(isopropylamino)pyrido[3,4-d]pyrimidine-6-carbonitrile] | 678 | 1530 | 629 | 6 | 388 |
| CC1(Nc2nc(C#N)cc3cnc(N[C@H]4CCCNC4)cc23)CC1 [Compound 148, (S)-1-((1-methylcyclopropyl)amino)-7-(piperidin-3-ylamino)-2,6-naphthyridine-3-carbonitrile] | 104 | 165 | 49 | 1 | 171 |
| CC(C)Nc1nc(C#N)cc2cnc(N[C@H]3CC[C@H](N)CC3)nc12 [Compound 136, 2-(((1r,4r)-4-aminocyclohexyl)amino)-8-(isopropylamino)pyrido[3,4-d]pyrimidine-6-carbonitrile] | 315 | 116 | 27 | 2 | 13 |
| CC(C)Nc1nc(C(F)(F)F)cc2cnc(N[C@H]3CCCNC3)nc12 [Compound C46, (S)—N^8-isopropyl-N^2-(piperidin-3-yl)-6-(trifluoromethyl)pyrido[3,4-d]pyrimidine-2,8-diamine] | 19 | 60 | 8 | 2 | 33 |
| CC(C)(C)Nc1nc(C#N)cc2cnc(N[C@H]3CCCNC3)cc12 [Compound 149, (S)-1-(tert-butylamino)-7-(piperidin-3-ylamino)-2,6-naphthyridine-3-carbonitrile] | 42 | 295 | 60 | 1 | 126 |
| CC(C)(C)Nc1nc(C(F)F)cc2cnc(NC3CCNCC3)nc12 [Compound C2, N^8-(tert-butyl)-6-(difluoromethyl)-N^2-(piperidin-4-yl)pyrido[3,4-d]pyrimidine-2,8-diamine] | 48 | 465 | 53 | 4 | 48 |
| N#Cc1cc2cnc(N[C@H]3CCCNC3)cc2c(O[C@@H]2CCOC2)n1 [Compound 154, 7-(((S)-piperidin-3-yl)amino)-1-(((R)-tetrahydrofuran-3-yl)oxy)-2,6-naphthyridine-3-carbonitrile] | 1020 | 3840 | 371 | 5 | 2320 |
| CC(C)(C)Nc1nc(C(F)F)cc2cnc(N[C@H]3CCCNC3)nc12 [Compound C1] | 7 | 17 | 7 | 2 | 21 |
| CC(C)Nc1nc(C#N)cc2cnc(N[C@H]3CC[C@H](O)C3)nc12 [Compound 122, 2-(((1S,3S)-3-hydroxycyclopentyl)amino)-8-(isopropylamino)pyrido[3,4-d]pyrimidine-6-carbonitrile] | 3 | 17 | 8 | 1 | 6 |
| CCOc1nc(C(F)F)cc2cnc(N[C@H]3C[C@H](N)C3)cc12 [Compound 200, (trans)-N^1-(7-(difluoromethyl)-5-ethoxy-2,6-naphthyridin-3-yl)cyclobutane-1,3-diamine] | 149 | 263 | 1100 | 2 | 244 |

The remaining molecules from weak to strong by IC50 (CDK1/CycE1), led by results:

| IC50 (CDK1/CycE1) [nM] | IC50 (CDK5/p25NCK) [nM] | IC50 (CDK3/CycE1) [nM] | IC50 (CDK9/CycT1) [nM] | IC50 (CDK2/CycA2) [nM] | SMILES |
| --- | --- | --- | --- | --- | --- |
| 411 | 4140 | 832 | 8 | 1290 | N#Cc1cc2cnc(N[C@H]3CCCNC3)cc2c(N[C@H]2CCOC2)n1 [Compound 151, 7-(((S)-piperidin-3-yl)amino)-1-(((S)-tetrahydrofuran-3-yl)amino)-2,6-naphthyridine-3-carbonitrile] |
| 336 | 176 | 915 | 3 | 352 | CCNc1nc(C#N)cc2cnc(N[C@H]3CCCNC3)cc12 [Compound 186, (S)-1-(ethylamino)-7-(piperidin-3-ylamino)-2,6-naphthyridine-3-carbonitrile] |
| 234 | 435 | 1480 | 3 | 489 | N#Cc1cc2cnc(N[C@H]3CCCNC3)cc2c(NC2CC2)n1 [Compound 175, (S)-1-(cyclopropylamino)-7-(piperidin-3-ylamino)-2,6-naphthyridine-3-carbonitrile] |
| 206 | 294 | 398 | 3 | 167 | CC(C)Nc1nc(C#N)cc2cnc(N[C@H]3CC[C@H](C)NC3)cc12 [Compound 103, 1-(isopropylamino)-7-(((3S,6S)-6-methylpiperidin-3-yl)amino)-2,6-naphthyridine-3-carbonitrile] |
| 173 | 484 | 124 | 3 | 227 | CC(Nc1nc(C#N)cc2cnc(N[C@H]3CCCNC3)cc12)C(F)(F)F (stereo partly drawn) [Compound 61, 7-(((S)-piperidin-3-yl)amino)-1-((1,1,1-trifluoropropan-2-yl)amino)-2,6-naphthyridine-3-carbonitrile] |
| 163 | 96 | 990 | 1 | 125 | CCNc1nc(C#N)cc2cnc(N[C@H]3C[C@H](N)C3)cc12 [Compound 184, 7-(((trans)-3-aminocyclobutyl)amino)-1-(ethylamino)-2,6-naphthyridine-3-carbonitrile] |
| 114 | 63 | 92 | 2 | 29 | CC(C)Nc1nc(C#N)cc2cnc(N[C@H]3CCCOC3)nc12 [Compound 116, (S)-8-(isopropylamino)-2-((tetrahydro-2H-pyran-3-yl)amino)pyrido[3,4-d]pyrimidine-6-carbonitrile] |
| 90 | 306 | 66 | 2 | 600 | CC(C)Nc1nc(C#N)cc2cnc(N[C@H]3CCCCNC3)cc12 [Compound 142, (S)-7-(azepan-3-ylamino)-1-(isopropylamino)-2,6-naphthyridine-3-carbonitrile] |
| 90 | 195 | 28 | 2 | 146 | N#Cc1cc2cnc(N[C@H]3CCCNC3)cc2c(NC2CCC2)n1 [Compound 144, (S)-1-(cyclobutylamino)-7-(piperidin-3-ylamino)-2,6-naphthyridine-3-carbonitrile] |
| 83 | 103 | 66 | 2 | 110 | CC(C)Nc1nc(C#N)cc2cnc(N[C@H]3CCCNC3)cc12 [Compound 38, (S)-1-(isopropylamino)-7-(piperidin-3-ylamino)-2,6-naphthyridine-3-carbonitrile] |
| 43 | 65 | 34 | 2 | 54 | CC(C)Nc1nc(C#N)cc2cnc(NC34CC(N)(C3)C4)nc12 [Compound 128, 2-((3-aminobicyclo[1.1.1]pentan-1-yl)amino)-8-(isopropylamino)pyrido[3,4-d]pyrimidine-6-carbonitrile] |
